Laboratory results as given in patent EP4810052A2, “HCRHR2 SELECTIVE POLYPEPTIDES” (Gubra A/S, priority 2023, dated 2026).
Read-outs that look alike come from different tables or passages of the source. Starred links: 1 amine or outer side, 2 acyl side, 3 side chain; linkers in the order of their positions; H or OH if unused. Non-standard residues stand in square brackets, D forms with d. Residues, ends and D or L forms follow the SMILES beside them. Groups on a side chain read outwards from the residue. *: point of attachment. C20 diacid = O=C(O)CCCCCCCCCCCCCCCCCCC(=O)*; γGlu = O=C(O)[C@H](CCC(=O)[*:2])N[*:1]; NMeI = CC[C@H](C)[C@H](NC)C(=O)O; Nle = CCCC[C@H](N)C(=O)O; AEEA = NCCOCCOCC(=O)O; Aib = CC(C)(N)C(=O)O

Key:
hCRHR1 = molecular target: T1, hCRHR1 (Homo sapiens, UniProt P34998); experiment: HTRF cAMP assay, determination of hCRHR1 potency (peptide libraries 5 conc., purified peptides 11 conc.); format: cell-based
T1 sequence (P34998 24-415): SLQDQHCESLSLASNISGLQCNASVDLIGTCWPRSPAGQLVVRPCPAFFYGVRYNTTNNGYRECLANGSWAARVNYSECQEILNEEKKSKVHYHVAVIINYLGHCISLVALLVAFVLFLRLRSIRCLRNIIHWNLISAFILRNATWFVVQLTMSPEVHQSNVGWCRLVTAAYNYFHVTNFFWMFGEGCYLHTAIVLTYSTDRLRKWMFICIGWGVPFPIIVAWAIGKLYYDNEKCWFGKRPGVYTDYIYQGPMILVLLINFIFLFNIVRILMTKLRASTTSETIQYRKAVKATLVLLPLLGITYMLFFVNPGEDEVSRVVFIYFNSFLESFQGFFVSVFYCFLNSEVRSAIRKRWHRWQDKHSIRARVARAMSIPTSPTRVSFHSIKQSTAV
Outline: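 Cellular cAMP was read by time-resolved FRET between d2-labelled cAMP and cryptate anti-cAMP antibody. The cells were freshly thawed suspension CHO-K1 cells stably expressing human CRHR1.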

hCRHR2 = molecular target: T2, hCRHR2 (Homo sapiens, UniProt Q13324); experiment: HTRF cAMP assay, determination of hCRHR2 potency (peptide libraries 5 conc., purified peptides 11 conc.); format: cell-based
T2 sequence (Q13324 1-411): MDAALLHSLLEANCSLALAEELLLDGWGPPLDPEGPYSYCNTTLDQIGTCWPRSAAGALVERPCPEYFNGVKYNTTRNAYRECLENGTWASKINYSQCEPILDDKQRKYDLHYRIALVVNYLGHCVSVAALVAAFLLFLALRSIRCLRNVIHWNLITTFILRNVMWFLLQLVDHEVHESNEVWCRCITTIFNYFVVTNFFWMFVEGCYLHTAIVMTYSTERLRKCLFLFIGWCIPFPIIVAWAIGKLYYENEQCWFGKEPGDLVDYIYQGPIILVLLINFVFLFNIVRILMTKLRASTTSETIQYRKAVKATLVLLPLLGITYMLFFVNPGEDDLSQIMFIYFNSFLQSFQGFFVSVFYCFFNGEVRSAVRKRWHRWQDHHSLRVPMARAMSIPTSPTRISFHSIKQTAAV
Outline: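 Read-out was HTRF competitive cAMP detection (d2-labelled cAMP, cryptate-labelled antibody) in suspended, freshly thawed CHO-K1 cells stably carrying human CRHR2.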

[1] = Table 3, matched molecular pairs X^38 L vs Nle, peptide library of Example 4, read-out: hCRHR1 pEC50 (converted)
[2] = Table 3, matched molecular pairs X^38 L vs Nle, peptide library of Example 4, read-out: hCRHR2 pEC50 (converted)
[3] = library peptides, matched molecular pairs L vs Nle in position X^38, read-out: Potency hCRHR1 pEC50 (converted)
[4] = library peptides, matched molecular pairs L vs Nle in position X^38, read-out: Potency hCRHR2 pEC50 (converted)

| SMILES | EC50 (hCRHR1; [1]) [nM] | EC50 (hCRHR2; [2]) [nM] | EC50 (hCRHR1; [3]) [nM] | EC50 (hCRHR2; [4]) [nM] | also measured |
| --- | --- | --- | --- | --- | --- |
| CC[C@H](C)[C@H](N)C(=O)N[C@H](C(=O)N[C@@H](CC(C)C)C(=O)N[C@@H](CO)C(=O)N[C@@H](CC(C)C)C(=O)N[C@@H](CC(=O)O)C(=O)N[C@H](C(=O)N1CCC[C@H]1C(=O)N[C@H](C(=O)NCC(=O)N[C@@H](CC(C)C)C(=O)N[C@@H](CC(C)C)C(=O)N[C@@H](CCC(N)=O)C(=O)N[C@H](C(=O)N[C@@H](CC(C)C)C(=O)N[C@@H](CC(C)C)C(=O)N[C@@H](CCC(=O)O)C(=O)N[C@@H](CCC(N)=O)C(=O)N[C@@H](C)C(=O)N[C@@H](CCCNC(=N)N)C(=O)N[C@@H](C)C(=O)N[C@@H](CCCNC(=N)N)C(=O)N[C@@H](C)C(=O)N[C@@H](C)C(=O)N[C@@H](CCCNC(=N)N)C(=O)N[C@@H](CCC(N)=O)C(=O)N[C@@H](CCC(N)=O)C(=O)N[C@@H](C)C(=O)N[C@@H](CCCCNC(=O)COCCOCCNC(=O)COCCOCCNC(=O)CC[C@H](NC(=O)CC[C@H](NC(=O)CCCCCCCCCCCCCCCCCCC(=O)O)C(=O)O)C(=O)O)C(=O)N[C@H](C(=O)N[C@@H](CC(N)=O)C(=O)N[C@@H](C)C(=O)N[C@@H](CCC(=O)O)C(=O)N[C@H](C(=O)N[C@@H](CC(C)C)C(=O)N[C@@H](C)C(=O)N[C@@H](CCC(=O)O)C(=O)N[C@H](C(N)=O)[C@@H](C)CC)[C@@H](C)CC)[C@@H](C)O)[C@@H](C)CC)[C@@H](C)CC)C(C)C)C(C)C [SEQ ID NO: 27] (H-IVLSLDVPIGLLQILLEQARARAARQQAK([AEEA-AEEA-γGlu-γGlu-C20 diacid])TNAEILAEI-NH2) | 63100 | 0.316 |  |  |  |
| CC[C@H](C)[C@H](N)C(=O)N[C@H](C(=O)N[C@@H](CC(C)C)C(=O)N[C@@H](CO)C(=O)N[C@@H](CC(C)C)C(=O)N[C@@H](CC(=O)O)C(=O)N[C@H](C(=O)N1CCC[C@H]1C(=O)N[C@H](C(=O)NCC(=O)N[C@@H](CC(C)C)C(=O)N[C@@H](CC(C)C)C(=O)N[C@@H](CCC(N)=O)C(=O)N[C@H](C(=O)N[C@@H](CC(C)C)C(=O)N[C@@H](CC(C)C)C(=O)N[C@@H](CCC(=O)O)C(=O)N[C@@H](CCC(N)=O)C(=O)N[C@@H](C)C(=O)N[C@@H](CCCNC(=N)N)C(=O)N[C@@H](C)C(=O)N[C@@H](CCCNC(=N)N)C(=O)N[C@@H](CCC(N)=O)C(=O)N[C@@H](C)C(=O)N[C@@H](CCCNC(=N)N)C(=O)N[C@@H](CCC(=O)O)C(=O)N[C@@H](CCC(N)=O)C(=O)N[C@@H](C)C(=O)N[C@@H](CCCCNC(=O)COCCOCCNC(=O)COCCOCCNC(=O)CC[C@H](NC(=O)CC[C@H](NC(=O)CCCCCCCCCCCCCCCCCCC(=O)O)C(=O)O)C(=O)O)C(=O)N[C@H](C(=O)N[C@@H](CC(N)=O)C(=O)N[C@@H](C)C(=O)N[C@@H](CCC(=O)O)C(=O)N[C@H](C(=O)N[C@@H](CC(C)C)C(=O)N[C@@H](C)C(=O)N[C@@H](CCC(=O)O)C(=O)N[C@H](C(N)=O)[C@@H](C)CC)[C@@H](C)CC)[C@@H](C)O)[C@@H](C)CC)[C@@H](C)CC)C(C)C)C(C)C [SEQ ID NO: 29] (H-IVLSLDVPIGLLQILLEQARARQAREQAK([AEEA-AEEA-γGlu-γGlu-C20 diacid])TNAEILAEI-NH2) | 39800 | 0.251 |  |  |  |
| CCCC[C@H](NC(=O)[C@@H](NC(=O)[C@H](CCC(=O)O)NC(=O)C(C)(C)NC(=O)[C@H](CC(N)=O)NC(=O)[C@@H](NC(=O)[C@H](CCCCNC(=O)COCCOCCNC(=O)COCCOCCNC(=O)CC[C@H](NC(=O)CC[C@H](NC(=O)CCCCCCCCCCCCCCCCCCC(=O)O)C(=O)O)C(=O)O)NC(=O)[C@H](C)NC(=O)[C@H](CCC(N)=O)NC(=O)[C@H](CCC(=O)O)NC(=O)[C@H](CCCNC(=N)N)NC(=O)[C@H](C)NC(=O)[C@H](C)NC(=O)[C@H](CCCNC(=N)N)NC(=O)[C@H](C)NC(=O)[C@H](CCCNC(=N)N)NC(=O)[C@H](C)NC(=O)[C@H](CCC(N)=O)NC(=O)[C@@H](NC(=O)[C@H](CC(C)C)NC(=O)[C@H](CC(C)C)NC(=O)[C@@H](NC(=O)[C@H](CCC(N)=O)NC(=O)[C@H](CC(C)C)NC(=O)[C@H](CC(C)C)NC(=O)CNC(=O)[C@@H](NC(=O)[C@@H]1CCCN1C(=O)[C@@H](NC(=O)[C@H](CC(=O)O)NC(=O)[C@H](CC(C)C)NC(=O)[C@H](CO)NC(=O)[C@H](CC(C)C)NC(=O)[C@@H](NC(=O)[C@@H](NC)[C@@H](C)CC)C(C)C)C(C)C)[C@@H](C)CC)[C@@H](C)CC)C(C)C)[C@@H](C)O)[C@@H](C)CC)C(=O)N[C@@H](C)C(=O)N[C@@H](CCC(=O)O)C(=O)N[C@H](C(N)=O)C(C)C [compound 231] (H-[NMeI]VLSLDVPIGLLQILLVQARARAAREQAK([AEEA-AEEA-γGlu-γGlu-C20 diacid])TN[Aib]EI[Nle]AEV-NH2) |  |  |  |  | EC50 (hCRHR1; Table 4, library peptides having X^38 = Nle, read-out: hCRHR1 pEC50 (converted)): 2510 nM; EC50 (hCRHR2; Table 4, library peptides having X^38 = Nle, read-out: hCRHR2 pEC50 (converted)): 0.0631 nM |

Now from value to compound, other results behind:

| EC50 (hCRHR1; [1]) [nM] | EC50 (hCRHR2; [2]) [nM] | EC50 (hCRHR1; [3]) [nM] | EC50 (hCRHR2; [4]) [nM] | SMILES | also measured |
| --- | --- | --- | --- | --- | --- |
|  |  | 63.1 | 0.126 | CCCC[C@H](NC(=O)[C@@H](NC(=O)[C@H](CCC(=O)O)NC(=O)[C@H](C)NC(=O)[C@H](CC(N)=O)NC(=O)[C@@H](NC(=O)[C@H](CCCCNC(=O)COCCOCCNC(=O)COCCOCCNC(=O)CC[C@H](NC(=O)CC[C@H](NC(=O)CCCCCCCCCCCCCCCCCCC(=O)O)C(=O)O)C(=O)O)NC(=O)[C@H](C)NC(=O)[C@H](CCC(N)=O)NC(=O)[C@H](CCC(=O)O)NC(=O)[C@H](CCCNC(=N)N)NC(=O)[C@H](CCC(N)=O)NC(=O)[C@H](C)NC(=O)[C@H](CCCNC(=N)N)NC(=O)[C@H](C)NC(=O)[C@H](CCCNC(=N)N)NC(=O)[C@H](C)NC(=O)[C@H](CCC(N)=O)NC(=O)[C@H](CCC(=O)O)NC(=O)[C@H](CC(C)C)NC(=O)[C@H](CC(C)C)NC(=O)[C@@H](NC(=O)[C@H](CCC(N)=O)NC(=O)[C@H](CC(C)C)NC(=O)[C@H](CC(C)C)NC(=O)CNC(=O)[C@@H](NC(=O)[C@@H]1CCCN1C(=O)[C@@H](NC(=O)[C@H](CC(=O)O)NC(=O)[C@H](CC(C)C)NC(=O)[C@H](CO)NC(=O)[C@H](CC(C)C)NC(=O)[C@@H](NC(=O)[C@@H](N)[C@@H](C)CC)C(C)C)C(C)C)[C@@H](C)CC)[C@@H](C)CC)[C@@H](C)O)[C@@H](C)CC)C(=O)N[C@@H](C)C(=O)N[C@@H](CCC(=O)O)C(=O)N[C@H](C(N)=O)C(C)C [compound 57] (H-IVLSLDVPIGLLQILLEQARARAQREQAK([AEEA-AEEA-γGlu-γGlu-C20 diacid])TNAEI[Nle]AEV-NH2) |  |
|  |  | 100000 | 0.631 | CCCC[C@H](NC(=O)[C@@H](NC(=O)[C@H](CCC(=O)O)NC(=O)[C@H](C)NC(=O)[C@H](CC(N)=O)NC(=O)[C@@H](NC(=O)[C@H](CCCCNC(=O)COCCOCCNC(=O)COCCOCCNC(=O)CC[C@H](NC(=O)CC[C@H](NC(=O)CCCCCCCCCCCCCCCCCCC(=O)O)C(=O)O)C(=O)O)NC(=O)[C@H](C)NC(=O)[C@H](CCC(=O)O)NC(=O)[C@H](CCC(=O)O)NC(=O)[C@H](CCCNC(=N)N)NC(=O)[C@H](CCC(N)=O)NC(=O)[C@H](CO)NC(=O)[C@H](CCCNC(=N)N)NC(=O)[C@H](C)NC(=O)[C@H](CCCNC(=N)N)NC(=O)[C@H](C)NC(=O)[C@H](CCC(N)=O)NC(=O)[C@H](CCC(=O)O)NC(=O)[C@H](CC(C)C)NC(=O)[C@H](CC(C)C)NC(=O)[C@@H](NC(=O)[C@H](CCC(N)=O)NC(=O)[C@H](CC(C)C)NC(=O)[C@H](CC(C)C)NC(=O)CNC(=O)[C@@H](NC(=O)[C@@H]1CCCN1C(=O)[C@@H](NC(=O)[C@H](CC(=O)O)NC(=O)[C@H](CC(C)C)NC(=O)[C@H](CO)NC(=O)[C@H](CC(C)C)NC(=O)[C@@H](NC(=O)[C@@H](N)[C@@H](C)CC)C(C)C)C(C)C)[C@@H](C)CC)[C@@H](C)CC)[C@@H](C)O)[C@@H](C)CC)C(=O)N[C@@H](C)C(=O)N[C@@H](CCC(=O)O)C(=O)N[C@H](C(N)=O)C(C)C [compound 71] (H-IVLSLDVPIGLLQILLEQARARSQREEAK([AEEA-AEEA-γGlu-γGlu-C20 diacid])TNAEI[Nle]AEV-NH2) |  |
